Experimental data from EP4700024A1, “CYCLOPENTYLPYRAZOLAMINE DERIVATIVE AND USE THEREOF” (Chia Tai Tianqing Pharmaceutical Group Co., Ltd., priority 2023, dated 2024).
Read-outs that look alike come from different tables or passages of the source.

How the values were obtained:
[1] = target: CDK2 CycE1 kinase (Homo sapiens, UniProt P24941); experiment: Determination of inhibitory activity against CDK2 CycE1 kinase; format: biochemical
Experimental: 1.2 Determination of inhibitory activity against CDK2 CycE1 kinase
CDK2 CycEl kinase solution (concentration: 0.015 ng/µL) was added to assay wells at 6 µL/well, and different compounds dissolved in DMSO were added to the assay wells separately using a nanoliter pipettor, such that the final concentrations of the compounds were 300 nM to 0.07 nM. The wells were set in duplicate, and a control well was set. After a 30-min incubation of the above system, ATP (concentration: 50 µM or 5000 µM) was mixed with ULight-Myelin Basic Protein Peptide substrate (manufacturer: PerkinElmer, concentration: 0.25 µM) in a ratio of 1:1, and the mixture was added to the assay wells at 4 µL/well. The resultant mixture was left to react at room temperature for 2 h, and then 5 µL of EDTA was added to terminate the reaction, followed by the addition of 5 µL of a detection antibody (manufacturer: PerkinElmer, concentration: 8 nM). The mixture was incubated at room temperature for 1 h. The assay was performed using a PerkinElmer Envision multifunctional microplate reader (excitation: 320 nm, emission: 615 nm/665 nm), and IC50 was calculated by four-parameter fitting. […] Table 1: Inhibitory activity of compound against CDK2 CycA2 and CDK2 CycEl kinases

[2] = target: CDK2/CycA2 kinase (Homo sapiens, UniProt P24941); experiment: Determination of inhibitory activity against CDK2/CycA2 kinase; format: biochemical
Experimental: 1.1 Determination of inhibitory activity against CDK2/CycA2 kinase
CDK2/CycA2 kinase solution (concentration: 0.078 ng/µL) was added to assay wells at 6 µL/well, and different compounds dissolved in DMSO were added to the assay wells separately using a nanoliter pipettor, such that the final concentrations of the compounds were 1000 nM to 0.244 nM. The wells were set in duplicate, and a control well was set. After a 30-min incubation of the above system, ATP (concentration: 50 µM or 5000 µM) was mixed with ULight-Myelin Basic Protein Peptide substrate (manufacturer: PerkinElmer, concentration: 0.25 µM) in a ratio of 1:1, and the mixture was added to the assay wells at 4 µL/well. The resultant mixture was left to react at room temperature for 2 h, and then 5 µL of EDTA was added to terminate the reaction, followed by the addition of 5 µL of a detection antibody (manufacturer: PerkinElmer, concentration: 8 nM). The mixture was incubated at room temperature for 1 h. The assay was performed using a PerkinElmer Envision multifunctional microplate reader (excitation: 320 nm, emission: 615 nm/665 nm), and IC50 was calculated by four-parameter fitting.

[3] = read-out: CDK2/CycE1 10 µM ATP (kinase) IC50
[4] = read-out: CDK2/CycA2 10 µM ATP (kinase) IC50
[5] = CDK2/CycA2 10 µM ATP (kinase) IC50 (nM)

SMILES	IC50 [1, 3]	IC50 [2, 4]	IC50 [2, 5]	IC50 ([1]; 10 µM ATP (kinase))
O=C(NC12CC(C1)C2)OC1CCC(c2cc(Nc3ccc4c(c3)C[S+]([O-])C4)n[nH]2)C1 (centres unmarked) [Compound 33]	< 10 nM	–	–	–
CC(C)(C)NC(=O)OC1CCC(c2cc(Nc3ccc4c(c3)C[S+]([O-])C4)n[nH]2)C1 (centres unmarked) [Compound 36]	< 10 nM	–	–	–
O=C(NC12CC(C1)C2)OC1CCC(c2cc(Nc3ccc4c(c3)C[S+]([O-])C4)n[nH]2)C1 (centres unmarked) [Compound 34]	< 10 nM	–	–	–
CC(NC(=O)OC1CCC(c2cc(Nc3ccc4c(c3)CS(=O)(=O)C4)[nH]n2)C1)C1CC1 (centres unmarked) [Compound 3]	< 10 nM	< 10 nM	–	–
CC(C)(C)NC(=O)OC1CCC(c2cc(Nc3ccc4c(c3)C[S+]([O-])C4)n[nH]2)C1 (centres unmarked) [Compound 14]	–	–	< 10 nM	< 10 nM
O=C(NCC(F)(F)F)OC1CCC(c2cc(Nc3ccc4c(c3)CS(=O)(=O)C4)[nH]n2)C1 (centres unmarked) [Compound 12]	–	–	10 to 50 nM	< 10 nM
CC(C)NC(=O)OC1CCC(c2cc(Nc3ccc4c(c3)C[S+]([O-])C4)n[nH]2)C1 (centres unmarked) [Compound 2]	< 10 nM	10 to 50 nM	–	–
CC1(NC(=O)OC2CCC(c3cc(Nc4ccc5c(c4)C[S+]([O-])C5)[nH]n3)C2)CC1 (centres unmarked) [Compound 25]	–	–	10 to 50 nM	< 10 nM
O=C(NC12CC(C1)C2)OC1CCC(c2cc(Nc3ccc4c(c3)CS(=O)(=O)C4)[nH]n2)C1 (centres unmarked) [Compound 7]	–	–	< 10 nM	< 10 nM
COCc1cc(Nc2cc([C@H]3CC[C@@H](OC(=O)NC(C)C)C3)n[nH]2)cc2c1C(C)S(=O)(=O)C2 (some centres unmarked) [Compound 8]	10 to 50 nM	–	–	–
C[C@H](NC(=O)O[C@@H]1CC[C@H](c2cc(Nc3ccc4c(c3)CS(=O)(=O)C4)[nH]n2)C1)C1CC1 [Compound 5]	< 10 nM	< 10 nM	–	–
CC1(NC(=O)OC2CCC(c3cc(Nc4ccc5c(c4)C[S+]([O-])C5)[nH]n3)C2)CC1 (centres unmarked) [Compound 31]	< 10 nM	–	< 10 nM	–
CC(C)(CCO)NC(=O)OC1CCC(c2cc(Nc3ccc4c(c3)CS(=O)(=O)C4)[nH]n2)C1 (centres unmarked) [Compound 6]	–	–	10 to 50 nM	< 10 nM
CCNC(=O)OC1CCC(c2cc(Nc3ccc4c(c3)C[S+]([O-])C4)[nH]n2)C1 (centres unmarked) [Compound 19]	–	–	–	10 to 50 nM
CC1(NC(=O)OC2CCC(c3cc(Nc4ccc5c(c4)C[S+]([O-])C5)[nH]n3)C2)CC1 (centres unmarked) [Compound 32]	< 10 nM	–	–	–
CC(C)NC(=O)OC1CCC(c2cc(Nc3ccc4c(c3)C[S+]([O-])C4)n[nH]2)C1 (centres unmarked) [Compound 23]	< 10 nM	–	–	–
O=C(NCC(F)F)OC1CCC(c2cc(Nc3ccc4c(c3)CS(=O)(=O)C4)[nH]n2)C1 (centres unmarked) [Compound 13]	–	–	< 10 nM	< 10 nM
CC(C)NC(=O)OC1CCC(c2cc(Nc3ccc4c(c3)C[S+]([O-])C4)n[nH]2)C1 (centres unmarked) [Compound 22]	–	–	10 to 50 nM	< 10 nM

SMILES	IC50 [1, 3]	IC50 [2, 4]	IC50 [2, 5]	IC50 ([1]; 10 µM ATP (kinase))
CC1(C)CCN1C(=O)OC1CCC(c2cc(Nc3ccc4c(c3)CS(=O)(=O)C4)[nH]n2)C1 (centres unmarked) [Compound 18]	–	< 10 nM	–	–
O=C(NC1CC1F)OC1CCC(c2cc(Nc3ccc4c(c3)C[S+]([O-])C4)[nH]n2)C1 (centres unmarked) [Compound 41]	–	–	–	< 10 nM
O=C(NC12CC(C1)C2)OC1CCC(c2cc(Nc3ccc4c(c3)C[S+]([O-])C4)n[nH]2)C1 (centres unmarked) [Compound 16]	–	–	< 10 nM	< 10 nM
CC1(C)CCN1C(=O)OC1CCC(c2cc(Nc3ccc4c(c3)CS(=O)(=O)C4)[nH]n2)C1 (centres unmarked) [Compound 17]	–	–	< 10 nM	< 10 nM
CC1(C)CCN1C(=O)OC1CCC(c2cc(Nc3ccc4c(c3)C[S+]([O-])C4)[nH]n2)C1 (centres unmarked) [Compound 26]	–	–	< 10 nM	< 10 nM
CC(C)(C)NC(=O)OC1CCC(c2cc(Nc3ccc4c(c3)C[S+]([O-])C4)n[nH]2)C1 (centres unmarked) [Compound 35]	< 10 nM	–	–	–
CC1(C)CCN1C(=O)OC1CCC(c2cc(Nc3ccc4c(c3)C[S+]([O-])C4)[nH]n2)C1 (centres unmarked) [Compound 30]	< 10 nM	–	10 to 50 nM	–
CCNC(=O)OC1CCC(c2cc(Nc3ccc4c(c3)C[S+]([O-])C4)[nH]n2)C1 (centres unmarked) [Compound 37]	10 to 50 nM	–	–	–
CC1CN(C)CCN1C(=O)OC1CCC(c2cc(Nc3ccc4c(c3)CS(=O)(=O)C4)[nH]n2)C1 (centres unmarked) [Compound 21]	–	–	< 10 nM	< 10 nM
CC1(C)CCN1C(=O)OC1CCC(c2cc(Nc3ccc4c(c3)C[S+]([O-])C4)[nH]n2)C1 (centres unmarked) [Compound 29]	< 10 nM	–	< 10 nM	–
O=C(NC1CCC1)OC1CCC(c2cc(Nc3ccc4c(c3)CS(=O)(=O)C4)[nH]n2)C1 (centres unmarked) [Compound 1]	–	–	< 10 nM	< 10 nM
CC(C)NC(=O)OC1CCC(c2cc(Nc3cc(F)c4c(c3)CS(=O)(=O)C4)[nH]n2)C1 (centres unmarked) [Compound 11]	–	–	< 10 nM	< 10 nM
O=C(NC1CC1)OC1CCC(c2cc(Nc3ccc4c(c3)C[S+]([O-])C4)[nH]n2)C1 (centres unmarked) [Compound 24]	–	–	–	10 to 50 nM
CC(C)(C)NC(=O)OC1CCC(c2cc(Nc3ccc4c(c3)CS(=O)(=O)C4)[nH]n2)C1 (centres unmarked) [Compound 4]	–	–	< 10 nM	< 10 nM
CC1CN(C)CCN1C(=O)OC1CCC(c2cc(Nc3ccc4c(c3)C[S+]([O-])C4)[nH]n2)C1 (centres unmarked) [Compound 20]	–	–	–	10 to 50 nM
CCNC(=O)OC1CCC(c2cc(Nc3ccc4c(c3)CS(=O)(=O)C4)[nH]n2)C1 (centres unmarked) [Compound 10]	–	–	< 10 nM	< 10 nM
CC(C)NC(=O)OC1CCC(c2cc(Nc3ccc4c(c3)CCS4(=O)=O)n[nH]2)C1 (centres unmarked) [Compound 15]	–	–	–	< 10 nM
